# Measurements reported in US12492214B2, “Solid state forms of Risdiplam and process for preparation thereof” (ASSIA CHEMICAL INDUSTRIES LTD., priority 2019, dated 2025).
# Assay: Stability of the solid form under mass pressure
# Format: physicochemical
# Conditions: mass pressure of 1 ton for 3 minutes
# Experimental: Form 3 is characterized by needle to ‘rod-like’ morphology. This morphology may be beneficial for flowability properties. In addition, Form 3 is found to be stable under mass pressure of 1 ton for 3 minutes.
compound,measurement,value
"Cc1cn2nc(-c3cc(=O)n4cc(N5CCNC6(CC6)C5)ccc4n3)cc(C)c2n1 [Form 3, 7-(4,7-diazaspiro[2.5]octan-7-yl)-2-(2,8-dimethylimidazo[1,2-b]pyridazin-6-yl)-4H-pyrido[1,2-a]pyrimidin-4-one]",stability under mass pressure,stable
